In patent US7947854B2, “Bis-cationic compounds and use thereof” (The University of Sydney, priority 2003, dated 2011):
Read-outs that look alike come from different tables or passages of the source. Marks after values point to notes of the source that are not given here.

Tests used:
[1] = tested on: secreted phospholipase B (PLB activity); assay: Radiometric assay, secreted PLB activity; format: biochemical, Cryptococcus neoformans H99; conditions: for PLB, percentage inhibition of activity: Secretory Cryptococcal H99 Phospholipase; for % Inhibition PLB, Secretory Enzyme: pH 4
How it was run: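 Secreted enzyme was taken from cell-free supernatant of Cryptococcus isolate H99 cells incubated 24 h at 37° C. Reactions at 37° C, pH 4.0 imidazole acetate, used 800 μM DPPC with [14C]-dipalmitoyl PC and 1 μg protein for 22 min. PLB was measured as radiolabelled PC loss by TLC, with inhibition expressed versus inhibitor-free control; compounds were tested at 25 and 250 μM, then 2.5 and 0.25 μM.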

[2] = tested on: Candida albicans ATCC 10231; assay: Antifungal susceptibility testing, microdilution MIC; format: cell-based; conditions: Candida albicans, ATCC10231
How it was run: (§1)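 Standard microdilution method, run in duplicate, using serial dilutions of cationic compounds.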

[3] = tested on: Cryptococcus neoformans ATCC 90112; assay: as above; format: cell-based; conditions: Cryptococcus neoformans, ATCC90112
How it was run: as §1

[4] = molecular target: T1, Porcine pancreatic phospholipase A2 (Sus scrofa, UniProt P00592); assay: Pancreatic phospholipase assay; format: biochemical; conditions: read-out: ppPLA2, percentage inhibition of activity
T1 construct: purchased Sigma, St. Louis MO, USA
T1 sequence (P00592 23-146): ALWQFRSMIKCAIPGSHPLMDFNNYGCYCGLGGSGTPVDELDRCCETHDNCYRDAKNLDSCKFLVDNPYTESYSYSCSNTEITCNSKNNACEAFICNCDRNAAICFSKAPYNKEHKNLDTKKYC
Procedure: Pancreatic phospholipase assay. Porcine pancreatic phospholipase A2 suspension in 3.2M ammonium sulfate (2.9 mg protein/mL, Sigma St.Louis Mo., USA) was used. One part of well mixed enzyme suspension was added to 4 parts of buffer (10 mM Tris/HCl, pH 8.2; 10 mM CaCl2. Activity and inhibition by test compounds was then measured by the radiometric method described in Example 2 for fungal PLB activity. However, 25 μL enzyme solution was used, and the reaction time was 1 hour. These conditions result in ˜60% substrate conversion in the inhibitor-free control.

[5] = Table 7, read-out: MIC (μM) C. alb. (10231)
[6] = Table 7, read-out: MIC (μM) Crypto. (ATCC 90112)
[7] = Table 6, no visible growth after 48 h at 35° C., read-out: MIC C. albicans ATCC 10231
[8] = Table 6, no visible growth after 72 h at 35° C., read-out: MIC C. neof. ATCC 90112

Compound: CCCC[N+](CCCC)(CCCC)CCCCCCCCCCCC[N+](CCCC)(CCCC)CCCC [1,12-Bis-(tributylammonium)dodecane dichloride]
- PLB assay (% inhibition) ([1]; 0.25 μM): 0%
- PLB assay (% inhibition) ([1]; 2.5 μM): 6%
- PLB assay (% inhibition) ([1]; 6.7 μM): 35%
- PLB assay (% inhibition) ([1]; 12.5 μM): 56%
- PLB assay (% inhibition) ([1]; 25 μM): 65%
- PLB assay (% inhibition) ([1]; 250 μM): 85%
- MIC [2, 5]: 5.5 µM
- MIC [3, 6]: 2.5 µM

Compound: CCCC[P+](CCCC)(CCCC)CCCCCCCCCCCC[P+](CCCC)(CCCC)CCCC [Compound 1, 1,12-bis(tributylphosphonium)dodecane dibromide]
- PLB assay (% inhibition) ([1]; 0.25 μM): 0%
- PLB, percentage inhibition of activity ([1]; 0.25 μM): 0%
- % Inhibition PLB, Secretory Enzyme ([1]; 0.25 μM): 0%
- PLB assay (% inhibition) ([1]; 2.5 μM): 0%
- PLB, percentage inhibition of activity ([1]; 2.5 μM): 0%
- % Inhibition PLB, Secretory Enzyme ([1]; 2.5 μM): 0%
- PLB assay (% inhibition) ([1]; 25 μM): 35%
- PLB, percentage inhibition of activity ([1]; 25 μM): 35%
- % Inhibition PLB, Secretory Enzyme ([1]; 25 μM): 35.2* %
- PLB assay (% inhibition) ([1]; 250 μM): 55%
- PLB, percentage inhibition of activity ([1]; 250 μM): 55%
- % Inhibition PLB, Secretory Enzyme ([1]; 250 μM): 55.0* %
- inhibition at 0.25 µM [4]: 0%
- inhibition at 2.5 µM [4]: 5%
- inhibition at 25 µM [4]: 62%
- inhibition at 250 µM [4]: 97%
- MIC [2, 7]: 8.8 µM
- MIC [2, 5]: 8.8 µM
- MIC [3, 8]: 2.5 µM
- MIC [3, 6]: 2.5 µM

Compound: CCCC[N+](CCCC)(CCCC)CCCCCCCCCCCC[N+](CCCC)(CCCC)CCCC [Compound 3, 1,12-bis(tributylammonium)do-decane dibromide]
- PLB, percentage inhibition of activity ([1]; 0.25 μM): 20%
- PLB, percentage inhibition of activity ([1]; 2.5 μM): 65%
- PLB, percentage inhibition of activity ([1]; 25 μM): 80%
- PLB, percentage inhibition of activity ([1]; 250 μM): 85%
- inhibition at 0.25 µM [4]: 0%
- inhibition at 2.5 µM [4]: 0%
- inhibition at 25 µM [4]: 36%
- inhibition at 250 µM [4]: 86%
- MIC [2, 7]: 11 µM
- MIC [3, 8]: 2.5 µM
